Experimental data reported in patent publication US6127519A, “Calcitonin derivatives” (Tsumura & Co., priority 1990, dated 2000).
Numbered stars: 1 amine (or outer) side, 2 acyl side, 3 side chain; on linkers, the order of the positions; unused ones are H or OH. Bridge positions count the residues as written; N and C are the ends. Square brackets hold non-standard residues; d marks the D form. Ends that are not written are not given here. Peptide text beside a SMILES is read from it. Suc = O=C(CCC(=O)[*:2])[*:1]; Orn = NCCC[C@H](N)C(=O)O

Tested on: calcium concentration in the serum
Assay: Test 1: reduction of calcium level in serum after tail vein administration to rats
Type: in vivo, rats of the Wistar strain
Conditions: 1 ml/kg tail vein, female Wistar rats
Method in brief: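 Female Wistar rats, six weeks old, were assigned in groups of 4 and given the test peptides through the tail vein at 1 ml/kg. The peptides were dissolved in 1% aqueous sodium acetate (pH 4,0) containing 0.1% BSA. Blood (0.3 ml) was drawn from the neck vein immediately before dosing and at set times afterward. Serum was separated by centrifuging at 3500 rpm for 20 minutes. Calcium was measured on a TBA-380 analyzer with a Wako o-cpc kit, and the percentage reduction in serum calcium was calculated.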

[1] = concentration 83 ng/ml, 0 hour (just before administration)
[2] = concentration 83 ng/ml, 2 hours
[3] = concentration 83 ng/ml, 4 hours
[4] = concentration 83 ng/ml, 6 hours
[5] = concentration 830 ng/ml, 0 hour (just before administration)
[6] = concentration 830 ng/ml, 1 hour
[7] = concentration 830 ng/ml, 2 hours
[8] = concentration 830 ng/ml, 4 hours
[9] = concentration 830 ng/ml, 6 hours
[10] = concentration 166 ng/ml, 0 hour (just before administration)
[11] = concentration 166 ng/ml, 1 hour
[12] = concentration 166 ng/ml, 2 hours
[13] = concentration 166 ng/ml, 4 hours
[14] = concentration 166 ng/ml, 6 hours

Molecule: CC[C@H](C)[C@H](NC(=O)[C@H](C)NC(=O)[C@@H](NC(=O)[C@H](CCC(N)=O)NC(=O)[C@@H]1CCCN1C(=O)[C@H](Cc1ccc(O)cc1)NC(=O)[C@@H](NC(=O)[C@H](CCC(N)=O)NC(=O)[C@H](CC(C)C)NC(=O)[C@H](CCCCN)NC(=O)[C@H](Cc1c[nH]cn1)NC(=O)[C@H](CC(C)C)NC(=O)[C@H](CCC(=O)O)NC(=O)[C@H](CCC(N)=O)NC(=O)[C@H](CO)NC(=O)[C@H](CC(C)C)NC(=O)[C@H](CCCCN)NC(=O)CNC(=O)[C@H](CC(C)C)NC(=O)[C@H](CC(C)C)NC(=O)[C@@H]1CCC(=O)NCCC[C@H](N)C(=O)N[C@@H](CC(N)=O)C(=O)N[C@@H](CC(C)C)C(=O)N[C@@H](CO)C(=O)N[C@@H]([C@@H](C)O)C(=O)N1)[C@@H](C)O)[C@@H](C)O)C(=O)NCC(=O)N[C@H](C(=O)NCC(=O)N[C@@H](C)C(=O)N1CCC[C@H]1C(N)=O)C(C)C [Peptide No. 30] (H-[Orn]NLSTELLGKLSQELHKLQTYPQTAIGVGAP-NH2; lactam 1-6)
- Serum calcium level as percent of pre-dose baseline [1]: 100.0%
- Serum calcium level as percent of pre-dose baseline (concentration 83 ng/ml, 1 hour): 77.2%
- Serum calcium level as percent of pre-dose baseline [2]: 80.7%
- Serum calcium level as percent of pre-dose baseline [3]: 83.2%
- Serum calcium level as percent of pre-dose baseline [4]: 77.7%
- Serum calcium level as percent of pre-dose baseline [5]: 100.0%
- Serum calcium level as percent of pre-dose baseline [6]: 74.0%
- Serum calcium level as percent of pre-dose baseline [7]: 63.8%
- Serum calcium level as percent of pre-dose baseline [8]: 65.4%
- Serum calcium level as percent of pre-dose baseline [9]: 73.9%

Molecule: CC[C@H](C)[C@H](NC(=O)[C@H](C)NC(=O)[C@@H](NC(=O)[C@H](CCC(N)=O)NC(=O)[C@@H]1CCCN1C(=O)[C@H](Cc1ccc(O)cc1)NC(=O)[C@@H](NC(=O)[C@H](Cc1c[nH]cn1)NC(=O)[C@H](Cc1ccccc1)NC(=O)[C@H](CCCCN)NC(=O)[C@H](CC(N)=O)NC(=O)[C@H](CC(C)C)NC(=O)[C@H](CC(=O)O)NC(=O)[C@H](CCC(N)=O)NC(=O)[C@H](CO)NC(=O)[C@H](CC(C)C)NC(=O)[C@H](CCCCN)NC(=O)CNC(=O)[C@H](CC(C)C)NC(=O)[C@H](CC(C)C)NC(=O)[C@@H]1CCCCNC(=O)C[C@H](N)C(=O)N[C@@H](CC(N)=O)C(=O)N[C@@H](CC(C)C)C(=O)N[C@@H](CO)C(=O)N[C@@H]([C@@H](C)O)C(=O)N1)[C@@H](C)O)[C@@H](C)O)C(=O)NCC(=O)N[C@H](C(=O)NCC(=O)N[C@@H](C)C(=O)N1CCC[C@H]1C(N)=O)C(C)C [Peptide No. 31] (H-DNLSTKLLGKLSQDLNKFHTYPQTAIGVGAP-NH2; lactam 1-6)
- Serum calcium level as percent of pre-dose baseline [1]: 100.0%
- Serum calcium level as percent of pre-dose baseline (concentration 83 ng/ml, 1 hour): 79.1%
- Serum calcium level as percent of pre-dose baseline [2]: 72.7%
- Serum calcium level as percent of pre-dose baseline [3]: 77.5%
- Serum calcium level as percent of pre-dose baseline [4]: 74.3%
- Serum calcium level as percent of pre-dose baseline [5]: 100.0%
- Serum calcium level as percent of pre-dose baseline [6]: 74.3%
- Serum calcium level as percent of pre-dose baseline [7]: 65.6%
- Serum calcium level as percent of pre-dose baseline [8]: 57.3%
- Serum calcium level as percent of pre-dose baseline [9]: 49.6%

Molecule: CC[C@H](C)[C@H](NC(=O)[C@H](C)NC(=O)[C@@H](NC(=O)[C@H](CCC(N)=O)NC(=O)[C@@H]1CCCN1C(=O)[C@H](Cc1ccc(O)cc1)NC(=O)[C@@H](NC(=O)[C@H](Cc1c[nH]cn1)NC(=O)[C@H](Cc1ccccc1)NC(=O)[C@H](CCCCN)NC(=O)[C@H](CC(N)=O)NC(=O)[C@H](CC(C)C)NC(=O)[C@H](CC(=O)O)NC(=O)[C@H](CCC(N)=O)NC(=O)[C@H](CO)NC(=O)[C@H](CC(C)C)NC(=O)[C@H](CCCCN)NC(=O)CNC(=O)[C@H](CC(C)C)NC(=O)[C@H](CC(C)C)NC(=O)[C@@H]1CCCCNC(=O)CCC(=O)N[C@@H](CC(N)=O)C(=O)N[C@@H](CC(C)C)C(=O)N[C@@H](CO)C(=O)N[C@@H]([C@@H](C)O)C(=O)N1)[C@@H](C)O)[C@@H](C)O)C(=O)NCC(=O)N[C@H](C(=O)NCC(=O)N[C@@H](C)C(=O)N1CCC[C@H]1C(N)=O)C(C)C [Peptide No. 32] (NLSTKLLGKLSQDLNKFHTYPQTAIGVGAP-NH2; linker N-5 via Suc)
- Serum calcium level as percent of pre-dose baseline [1]: 100.0%
- Serum calcium level as percent of pre-dose baseline (concentration 83 ng/ml, 1 hour): 82.4%
- Serum calcium level as percent of pre-dose baseline [2]: 76.1%
- Serum calcium level as percent of pre-dose baseline [3]: 79.1%
- Serum calcium level as percent of pre-dose baseline [4]: 84.1%
- Serum calcium level as percent of pre-dose baseline [5]: 100.0%
- Serum calcium level as percent of pre-dose baseline [6]: 84.5%
- Serum calcium level as percent of pre-dose baseline [7]: 73.6%
- Serum calcium level as percent of pre-dose baseline [8]: 65.9%
- Serum calcium level as percent of pre-dose baseline [9]: 64.2%

Molecule: CC[C@H](C)[C@H](NC(=O)[C@H](C)NC(=O)[C@@H](NC(=O)[C@H](CCC(N)=O)NC(=O)[C@@H]1CCCN1C(=O)[C@H](Cc1ccc(O)cc1)NC(=O)[C@@H](NC(=O)[C@H](Cc1c[nH]cn1)NC(=O)[C@H](Cc1ccccc1)NC(=O)[C@H](CCCCN)NC(=O)[C@H](CC(N)=O)NC(=O)[C@H](CC(C)C)NC(=O)[C@H](CC(=O)O)NC(=O)[C@H](CCC(N)=O)NC(=O)[C@@H](NC(=O)[C@H](CC(C)C)NC(=O)[C@H](CCCCN)NC(=O)CNC(=O)[C@H](CC(C)C)NC(=O)[C@H](CC(C)C)NC(=O)[C@@H]1CCCCNC(=O)CCC(=O)N[C@@H](CC(N)=O)C(=O)N[C@@H](CC(C)C)C(=O)N[C@@H](CO)C(=O)N[C@@H]([C@@H](C)O)C(=O)N1)[C@@H](C)O)[C@@H](C)O)[C@@H](C)O)C(=O)NCC(=O)N[C@H](C(=O)NCC(=O)N[C@@H](C)C(=O)N1CCC[C@H]1C(N)=O)C(C)C [Peptide No. 33] (NLSTKLLGKLTQDLNKFHTYPQTAIGVGAP-NH2; linker N-5 via Suc)
- Serum calcium level as percent of pre-dose baseline [1]: 100.0%
- Serum calcium level as percent of pre-dose baseline (concentration 83 ng/ml, 1 hour): 78.2%
- Serum calcium level as percent of pre-dose baseline [2]: 70.0%
- Serum calcium level as percent of pre-dose baseline [3]: 92.4%
- Serum calcium level as percent of pre-dose baseline [4]: 86.0%
- Serum calcium level as percent of pre-dose baseline [5]: 100.0%
- Serum calcium level as percent of pre-dose baseline [6]: 80.8%
- Serum calcium level as percent of pre-dose baseline [7]: 71.8%
- Serum calcium level as percent of pre-dose baseline [8]: 63.5%
- Serum calcium level as percent of pre-dose baseline [9]: 55.1%

Molecule: AGNLSTAMLGKLSQELHKGQTYPQTAIGVGAP-NH2 [Peptide No. 17]
- Serum calcium level as percent of pre-dose baseline [10]: 100.0%
- Serum calcium level as percent of pre-dose baseline [11]: 77.6%
- Serum calcium level as percent of pre-dose baseline [12]: 71.5%
- Serum calcium level as percent of pre-dose baseline [13]: 79.7%
- Serum calcium level as percent of pre-dose baseline [14]: 83.2%

Molecule: AGNLSTAMLGKLSQELHKLQTYPQTAIGVGAP-NH2 [Peptide No. 14]
- Serum calcium level as percent of pre-dose baseline [10]: 100.0%
- Serum calcium level as percent of pre-dose baseline [11]: 76.0%
- Serum calcium level as percent of pre-dose baseline [12]: 70.0%
- Serum calcium level as percent of pre-dose baseline [13]: 74.3%
- Serum calcium level as percent of pre-dose baseline [14]: 73.7%

Molecule: AGNLSTAMLGKLSQELHKLYPQTAIGVGAP-NH2 [Peptide No. 16]
- Serum calcium level as percent of pre-dose baseline [10]: 100.0%
- Serum calcium level as percent of pre-dose baseline [11]: 80.0%
- Serum calcium level as percent of pre-dose baseline [12]: 86.5%
- Serum calcium level as percent of pre-dose baseline [13]: 84.8%
- Serum calcium level as percent of pre-dose baseline [14]: 85.7%

Molecule: AGNLSTAMLGKLSQELHKQTYPQTAIGVGAP-NH2 [Peptide No. 15]
- Serum calcium level as percent of pre-dose baseline [10]: 100.0%
- Serum calcium level as percent of pre-dose baseline [11]: 75.5%
- Serum calcium level as percent of pre-dose baseline [12]: 67.5%
- Serum calcium level as percent of pre-dose baseline [13]: 80.6%
- Serum calcium level as percent of pre-dose baseline [14]: 75.3%

Molecule: Peptide No. 20: novel linear calcitonin-derivative peptide, Ala at 1 and 7, Leu8, SEQ ID NO:20 (AGNLTSALLGKLSQELHKLQTYPQTAIGVGAP; ends and bridges not checked)
- Serum calcium level as percent of pre-dose baseline [1]: 100.0%
- Serum calcium level as percent of pre-dose baseline (concentration 83 ng/ml, 1 hour): 86.6%
- Serum calcium level as percent of pre-dose baseline [2]: 88.4%
- Serum calcium level as percent of pre-dose baseline [3]: 83.9%
- Serum calcium level as percent of pre-dose baseline [4]: 87.5%
- Serum calcium level as percent of pre-dose baseline [5]: 100.0%
- Serum calcium level as percent of pre-dose baseline [6]: 80.6%
- Serum calcium level as percent of pre-dose baseline [7]: 87.8%
- Serum calcium level as percent of pre-dose baseline [8]: 82.9%
- Serum calcium level as percent of pre-dose baseline [9]: 84.5%

Molecule: Peptide No. 21: novel calcitonin-derivative peptide, aminosuberic acid (carba) ring, Met8, SEQ ID NO:21 (XGNLSTAMLGKLSQELHKLQTYPQTAIGVGAP; aminosuberic acid carba ring)
- Serum calcium level as percent of pre-dose baseline [1]: 100.0%
- Serum calcium level as percent of pre-dose baseline (concentration 83 ng/ml, 1 hour): 78.4%
- Serum calcium level as percent of pre-dose baseline [2]: 71.7%
- Serum calcium level as percent of pre-dose baseline [3]: 62.6%
- Serum calcium level as percent of pre-dose baseline [4]: 67.1%
- Serum calcium level as percent of pre-dose baseline [5]: 100.0%
- Serum calcium level as percent of pre-dose baseline [6]: 78.4%
- Serum calcium level as percent of pre-dose baseline [7]: 71.7%
- Serum calcium level as percent of pre-dose baseline [8]: 62.6%
- Serum calcium level as percent of pre-dose baseline [9]: 67.1%
